Experiment [1] has as its system HLA-A*01:01, HLA-A*02:01, HLA-A*03:01, HLA-A*24:02, HLA-B*07:02, HLA-B*08:01 and HLA-B*44:02. The experiment can be described thus: HLA alleles the peptides bind to (Table 7). The experiment is classed as binding, human. The settings on record: allotype from the group HLA-A*01:01, HLA-A*02:01, HLA-A*03:01, HLA-A*24:02, HLA-B*07:02, HLA-B*08:01, HLA-B*44:02. The text has this:
However, due to similarities in binding pattern such as the relevant anchoring positions some peptides bind to more than one allele, such an overlap is most likely, but not limited to, HLA-A*01 binding peptides also binding to HLA-B*15, HLA-A*03 binding peptides also binding to HLA-A*11, HLA-B*07 binding peptides also binding to HLA-B*35 and HLA-B*51.

A further experiment addresses HLA-A*02:01 (Homo sapiens, UniProt P04439, D140Y/D185E/D98H/E176V/E277Q/G131W/G231S/I119V/I121R/I166T/I218V/L300P/L318F/N151K/N90K/P208A/P217A/Q86G/Q94H/R138H/R169H/T345S). The experiment can be described thus: MHC binding assay, UV-ligand exchange ELISA. Conditions: peptide exchange yield, binding to HLA-A*02:01.
For a further experiment, the target named is HLA-A*24:02 (Homo sapiens, UniProt P04439, D101N/D140Y/D185E/E176V/E190D/F33S/G103R/G107R/I119L/I121M/I306V/K335N/L105A/L180Q/L300P/N151K/N90K/Q86E/Q94H/R106L/R138H/R89G/T104I/T345S/V100E/W191G/Y123F). The experiment is described as follows: MHC binding assay, UV-ligand exchange ELISA. The settings on record: peptide exchange yield, binding to HLA-A*24:02. (In an ELISA, binding on a coated surface is turned into a signal by an enzyme label.)

Turning to “10 (ILMILQPQL; listed as Homo sapiens) [compound 10]”, the “Binders (HLA alleles the peptides according to the invention bind to)” value (“Binders” below) in experiment [1] was “HLA-A*02:01”. Moreover, in the experiment with HLA-A*02:01, the Peptide exchange entry is on record as “++++ (≥75% = ++++)”.
Consider “113 (ALGPMAFRV; listed as Homo sapiens) [compound 113]”, for which, in experiment [1], the “Binders” value was “HLA-A*02:01”. In addition, the Peptide exchange result in the experiment with HLA-A*02:01 is recorded as “++++ (≥75% = ++++)”.
For “4 (IQAPALLKV; listed as Homo sapiens) [compound 4]” the same measures were “HLA-A*02:01” and “++++ (≥75% = ++++)”.
On to “170 (LLDSWNILI; listed as Homo sapiens) [compound 170]”, for which the “Binders” value in experiment [1] is recorded as “HLA-A*02:01”. Further, the Peptide exchange result with HLA-A*02:01 is listed as “++++ (≥75% = ++++)”.
For “153 (ALNLSRLTV; listed as Homo sapiens) [compound 153]” the same measures were “HLA-A*02:01” and “++++ (≥75% = ++++)”.
For “30 (SLKSSILFL; listed as Homo sapiens) [compound 30]” the same measures were “HLA-A*02:01” and “+++ (≥50% = +++)”.
For “102 (FLLLEKGGEL; listed as Homo sapiens) [compound 102]” the same measures were “HLA-A*02:01” and “++++ (≥75% = ++++)”.
As to “18 (SLSKLVATV; listed as Homo sapiens) [compound 18]”, in experiment [1], the “Binders” value was “HLA-A*02:01”. The Peptide exchange entry with HLA-A*02:01 was “++++ (≥75% = ++++)”.
“188 (KLPFFTNFL; listed as Homo sapiens) [compound 188]”: the “Binders” value in experiment [1] was “HLA-A*02:01”. Further, the Peptide exchange result with HLA-A*02:01 is on record as “++++ (≥75% = ++++)”.
The corresponding values for “57 (IIIDRILLL; listed as Homo sapiens) [compound 57]” are “HLA-A*02:01” and “++++ (≥75% = ++++)”.
The corresponding values for “130 (ITPDSIPSV; listed as Homo sapiens) [compound 130]” are “HLA-A*02:01” and “+++ (≥50% = +++)”.
As for “40 (LYQTTIELF; listed as Homo sapiens) [compound 40]”, the “Binders” value in experiment [1] is “HLA-A*24:02”. Moreover, the Peptide exchange result with HLA-A*24:02 is listed as “++++ (75% = ++++)”.
Consider “108 (SLQESLPNA; listed as Homo sapiens) [compound 108]”, for which the “Binders” value in experiment [1] is reported as “HLA-A*02:01”. The Peptide exchange entry with HLA-A*02:01 was “+++ (≥50% = +++)”.
As for “189 (IWRALGSLF; listed as Homo sapiens) [compound 189]”, in experiment [1], the “Binders” value was “HLA-A*24:02”. Besides, in the experiment with HLA-A*24:02, the Peptide exchange result is recorded as “++++ (75% = ++++)”.
Turning to “106 (GLLDAFLRL; listed as Homo sapiens) [compound 106]”, in experiment [1], the “Binders” value was “HLA-A*02:01”. In addition, the Peptide exchange result with HLA-A*02:01 was “++++ (≥75% = ++++)”.
For “116 (IYLTKSNLVNM; listed as Homo sapiens) [compound 116]”, in experiment [1], the “Binders” value is reported as “HLA-A*24:02”. For the same substance, the Peptide exchange result with HLA-A*24:02 is “++++ (75% = ++++)”.
For “74 (TLNVLITL; listed as Homo sapiens) [compound 74]”, in experiment [1], the “Binders” value is “HLA-A*02:01”. Also, the Peptide exchange result with HLA-A*02:01 is reported as “++ (≥20% = ++)”.
With “183 (VFVISGSHLF; listed as Homo sapiens) [compound 183]”, the “Binders” value in experiment [1] is reported as “HLA-A*24:02”. Also, the Peptide exchange entry in the experiment with HLA-A*24:02 is on record as “++++ (75% = ++++)”.
For “16 (NFHTLAQQLLF; listed as Homo sapiens) [compound 16]” the same measures were “HLA-A*24:02” and “++++ (75% = ++++)”.
On to “167 (FALGPIIKQL; listed as Homo sapiens) [compound 167]”, for which the “Binders” value in experiment [1] is “HLA-A*02:01”. Also, the Peptide exchange result with HLA-A*02:01 is recorded as “+++ (≥50% = +++)”.
The corresponding values for “9 (LLGVVSHSV; listed as Homo sapiens) [compound 9]” are “HLA-A*02:01” and “++++ (≥75% = ++++)”.
Turning to “87 (LHLNPGLSF; listed as Homo sapiens) [compound 87]”, the “Binders” value in experiment [1] was “HLA-A*24:02”. The Peptide exchange result with HLA-A*24:02 is on record as “++ (20% = ++)”.
For “195 (AWNESSAWLL; listed as Homo sapiens) [compound 195]” the same measures were “HLA-A*24:02” and “++++ (75% = ++++)”.
The corresponding values for “6 (SHSLPAFTL; listed as Homo sapiens) [compound 6]” are “HLA-A*24:02” and “++ (20% = ++)”.
With “164 (SHSSPTVSF; listed as Homo sapiens) [compound 164]”, the “Binders” value in experiment [1] is “HLA-A*24:02”. For the same substance, the Peptide exchange entry with HLA-A*24:02 is listed as “++ (20% = ++)”.
The corresponding values for “80 (IFDLSDPRF; listed as Homo sapiens) [compound 80]” are “HLA-A*24:02” and “++ (20% = ++)”.
Take “13 (LYDTVTHTF; listed as Homo sapiens) [compound 13]”: in experiment [1], the “Binders” value was “HLA-A*24:02”. Also, in the experiment with HLA-A*24:02, the Peptide exchange entry is given as “++++ (75% = ++++)”.
With “82 (VLQSLQHEL; listed as Homo sapiens) [compound 82]”, the “Binders” value in experiment [1] was “HLA-A*02:01”. Moreover, the Peptide exchange result with HLA-A*02:01 is reported as “++++ (≥75% = ++++)”.
Consider “31 (VFLLLPYPRF; listed as Homo sapiens) [compound 31]”, for which the “Binders” value in experiment [1] is “HLA-A*24:02”. The Peptide exchange result with HLA-A*24:02 is listed as “++++ (75% = ++++)”.
“45 (SLFPISLTV; listed as Homo sapiens) [compound 45]”: the “Binders” value in experiment [1] is given as “HLA-A*02:01”. Also, the Peptide exchange result in the experiment with HLA-A*02:01 is reported as “++++ (≥75% = ++++)”.
For “3 (VYIASSFKI; listed as Homo sapiens) [compound 3]”, the “Binders” value in experiment [1] is “HLA-A*24:02”. Also, in the experiment with HLA-A*24:02, the Peptide exchange result is reported as “++++ (75% = ++++)”.
The corresponding values for “163 (LWALAIPSL; listed as Homo sapiens) [compound 163]” are “HLA-A*24:02” and “+++ (50% = +++)”.
Turning to “201 (VWILQKVNLAF; listed as Homo sapiens) [compound 201]”, the “Binders” value in experiment [1] is on record as “HLA-A*24:02”. Besides, the Peptide exchange result with HLA-A*24:02 was “+++ (50% = +++)”.
The corresponding values for “160 (EYLGSENVF; listed as Homo sapiens) [compound 160]” are “HLA-A*24:02” and “+++ (50% = +++)”.
For “67 (GRFWLPFNF; listed as Homo sapiens) [compound 67]” the same measures were “HLA-A*24:02” and “++ (20% = ++)”.

Source of the values: patent US11957716B2 (Immatics Biotechnologies GmbH, priority 2021, dated 2024).
